Measured values: ChEMBL document CHEMBL5625200 (Eur J Med Chem, 2023)
Active and inactive are the calls of the source. The rule behind the calls is not given here.

Assays:
[1] = system: Rattus norvegicus; assay: Antihypertensive activity against MCT-induced Wistar albino rat PAH model assessed as decreased right ventricular hypertrophy at 300 mg/kg, sc administered for 21 days (reference value: 0.42 +/- 0.020 […]); assay type: functional; conditions: time 21 day
[2] = system: Rattus norvegicus; assay: Antihypertensive activity against MCT-induced Wistar albino rat PAH model assessed as decreased right ventricular hypertrophy at 150 mg/kg, sc administered for 21 days (reference value: 0.42 +/- 0.020 […]); assay type: functional; conditions: time 21 day
[3] = system: Rattus norvegicus; assay: Antihypertensive activity against MCT-induced Wistar albino rat PAH model assessed as decreased mean pulmonary arterial pressure at 300 mg/kg, sc administered for 21 days (reference value: 19.18 +/- 0.360 mmHg); assay type: functional; conditions: time 21 day
[4] = system: Rattus norvegicus; assay: Antihypertensive activity against MCT-induced Wistar albino rat PAH model assessed as decreased mean pulmonary arterial pressure at 150 mg/kg, sc administered for 21 days (reference value: 19.18 +/- 0.360 mmHg); assay type: functional; conditions: time 21 day
[5] = system: Rattus norvegicus; assay: Antihypertensive activity against MCT-induced Wistar albino rat PAH model assessed as decreased right ventricular systolic pressure at 300 mg/kg, sc administered for 21 days (reference value: 55.19 +/- 0.026 mmHg); assay type: functional; conditions: time 21 day
[6] = system: Rattus norvegicus; assay: Antihypertensive activity against MCT-induced Wistar albino rat PAH model assessed as decreased right ventricular systolic pressure at 150 mg/kg, sc administered for 21 days (reference value: 55.19 +/- 0.026 mmHg); assay type: functional; conditions: time 21 day
[7] = target: T1, Endothelin-1 receptor (Homo sapiens, UniProt P25101); assay: Antagonist activity against human ET-1 by ELISA analysis; assay type: functional
T1 sequence (P25101 whole entry): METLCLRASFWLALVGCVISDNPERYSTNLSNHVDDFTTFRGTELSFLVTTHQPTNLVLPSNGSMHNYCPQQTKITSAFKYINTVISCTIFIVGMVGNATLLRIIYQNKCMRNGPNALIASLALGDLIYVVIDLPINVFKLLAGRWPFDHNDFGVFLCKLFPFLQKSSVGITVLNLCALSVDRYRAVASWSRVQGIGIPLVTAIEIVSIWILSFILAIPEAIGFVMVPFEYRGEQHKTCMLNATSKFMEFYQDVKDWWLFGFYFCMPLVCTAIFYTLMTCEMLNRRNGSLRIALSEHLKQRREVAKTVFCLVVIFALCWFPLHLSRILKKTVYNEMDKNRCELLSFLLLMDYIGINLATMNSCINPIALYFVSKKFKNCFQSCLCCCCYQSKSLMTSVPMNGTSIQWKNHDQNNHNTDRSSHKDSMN

[8] = system: Rattus norvegicus; assay: Antihypertensive activity against MCT-induced Wistar albino rat PAH model assessed as reduction in peribronchial and interstitial inflammatory infiltrates and inter-alveolar vascular spaces at 150 to 300 mg/kg, sc by hematoxylin and eosin staining based microscopic analysis; assay type: functional, organism-based; conditions: dose 150-300 mg/kg
[9] = system: Rattus norvegicus; assay: Antihypertensive activity against MCT-induced Wistar albino rat assessed as reduction in HIF1alpha level at 150 mg/kg, sc by ELISA analysis (reference value: 312.00 +/- 1.36 ng/ml); assay type: functional
[10] = system: Rattus norvegicus; assay: Antihypertensive activity against MCT-induced Wistar albino rat assessed as reduction in HIF1alpha level at 300 mg/kg, sc by ELISA analysis (reference value: 312.00 +/- 1.36 ng/ml); assay type: functional
[11] = system: Rattus norvegicus; assay: Antihypertensive activity against MCT-induced Wistar albino rat assessed as reduction in ANP level at 150 mg/kg, sc by ELISA analysis (reference value: 358.00 +/- 1.24 pg/ml); assay type: functional
[12] = system: Rattus norvegicus; assay: Antihypertensive activity against MCT-induced Wistar albino rat assessed as reduction in ANP level at 300 mg/kg, sc by ELISA analysis (reference value: 358.00 +/- 1.24 pg/ml); assay type: functional
[13] = system: Rattus norvegicus; assay: Antihypertensive activity against MCT-induced Wistar albino rat assessed as reduction in TNNI3 level at 150 mg/kg, sc by ELISA analysis (reference value: 3.42 +/- 0.12 pg/ml); assay type: functional
[14] = system: Rattus norvegicus; assay: Antihypertensive activity against MCT-induced Wistar albino rat assessed as reduction in TNNI3 level at 300 mg/kg, sc by ELISA analysis (reference value: 3.42 +/- 0.12 pg/ml); assay type: functional
[15] = system: Rattus norvegicus; assay: Antioxidant activity against MCT-induced Wistar albino rat assessed as increase in SOD level at 150 mg/kg, sc by biochemical analysis (reference value: 19.15 +/- 0.21 U/mg); assay type: functional
[16] = system: Rattus norvegicus; assay: Antioxidant activity against MCT-induced Wistar albino rat assessed as increase in SOD level at 300 mg/kg, sc by biochemical analysis (reference value: 19.15 +/- 0.21 U/mg); assay type: functional
[17] = system: Rattus norvegicus; assay: Antioxidant activity against MCT-induced Wistar albino rat assessed as increase in catalase level at 150 mg/kg, sc by biochemical analysis (reference value: 0.26 +/- 0.05 U/mg); assay type: functional
[18] = system: Rattus norvegicus; assay: Antioxidant activity against MCT-induced Wistar albino rat assessed as increase in catalase level at 300 mg/kg, sc by biochemical analysis (reference value: 0.26 +/- 0.05 U/mg); assay type: functional
[19] = system: Rattus norvegicus; assay: Antioxidant activity against MCT-induced Wistar albino rat assessed as increase in GSH level at 150 mg/kg, sc by biochemical analysis (reference value: 12.21 +/- 0.34 U/mg); assay type: functional
[20] = system: Rattus norvegicus; assay: Antioxidant activity against MCT-induced Wistar albino rat assessed as increase in GSH level at 300 mg/kg, sc by biochemical analysis (reference value: 12.21 +/- 0.34 U/mg); assay type: functional
[21] = system: Rattus norvegicus; assay: Antioxidant activity against MCT-induced Wistar albino rat assessed as reduction in TBARS level at 150 mg/kg, sc by biochemical analysis (reference value: 123.03 +/- 0.47 micromol); assay type: functional
[22] = system: Rattus norvegicus; assay: Antioxidant activity against MCT-induced Wistar albino rat assessed as reduction in TBARS level at 300 mg/kg, sc by biochemical analysis (reference value: 123.03 +/- 0.47 micromol); assay type: functional
[23] = system: Rattus norvegicus; assay: Antihypertensive activity against MCT-induced Wistar albino rat assessed as decrease in COX-2 expression by measuring fold change at 300 mg/kg, sc by quantitative RT-PCR analysis (reference value: 32.22); assay type: functional
[24] = system: Rattus norvegicus; assay: Antihypertensive activity against MCT-induced Wistar albino rat assessed as decrease in ET-alpha expression by measuring fold change at 300 mg/kg, sc by quantitative RT-PCR analysis (reference value: 32.14); assay type: functional
[25] = system: Rattus norvegicus; assay: Antihypertensive activity against MCT-induced Wistar albino rat assessed as decrease in ET-beta expression by measuring fold change at 300 mg/kg, sc by quantitative RT-PCR analysis (reference value: 15.17); assay type: functional
[26] = system: Rattus norvegicus; assay: Antihypertensive activity against MCT-induced Wistar albino rat assessed as decrease in mPGES-1 expression by measuring fold change at 300 mg/kg, sc by quantitative RT-PCR analysis (reference value: 10.99); assay type: functional
[27] = system: Rattus norvegicus; assay: Antihypertensive activity against MCT-induced Wistar albino rat assessed as increase in eNOS expression by measuring fold change at 300 mg/kg, sc by quantitative RT-PCR analysis (reference value: 0.002); assay type: functional
[28] = system: Rattus norvegicus; assay: Antihypertensive activity against MCT-induced Wistar albino rat assessed as increase in SGC expression by measuring fold change at 300 mg/kg, sc by quantitative RT-PCR analysis (reference value: 0.01); assay type: functional
[29] = system: Rattus norvegicus; assay: Antihypertensive activity against MCT-induced Wistar albino rat assessed as decrease in lung COX-2 expression at 300 mg/kg, sc by Western blotting analysis; assay type: functional, organism-based
[30] = system: Rattus norvegicus; assay: Antihypertensive activity against MCT-induced Wistar albino rat assessed as decrease in lung mPGES-1 expression at 300 mg/kg, sc by Western blotting analysis; assay type: functional, organism-based
[31] = system: Rattus norvegicus; assay: Antihypertensive activity against MCT-induced Wistar albino rat assessed as increase in lung SGC expression at 300 mg/kg, sc by Western blotting analysis; assay type: functional, organism-based
[32] = system: Rattus norvegicus; assay: Antihypertensive activity against MCT-induced Wistar albino rat assessed as increase in lung eNOS expression at 300 mg/kg, sc by Western blotting analysis; assay type: functional, organism-based
[33] = system: Rattus norvegicus; assay: Antihypertensive activity against MCT-induced Wistar albino rat assessed as reduction of arterial wall thickening in peribronchial arteries at 150 to 300 mg/kg, sc by hematoxylin and eosin staining based microscopic analysis; assay type: functional, organism-based; conditions: dose 150-300 mg/kg
[34] = system: Rattus norvegicus; assay: Antihypertensive activity against MCT-induced Wistar albino rat assessed as presence of lung vasculitis at 150 to 300 mg/kg, sc by hematoxylin and eosin staining based microscopic analysis; assay type: functional, organism-based; conditions: dose 150-300 mg/kg

## COc1ccccc1Oc1c(NS(=O)(=O)c2ccccc2)nc(-c2ncccn2)nc1OCC1CCCN1C (stereo unspecified)
[1]
  Activity: 0.24
[2]
  Activity: 0.27
[3]
  Activity: 10.12 mmHg
[4]
  Activity: 13.11 mmHg
[5]
  Activity: 23.16 mmHg
[6]
  Activity: 29.08 mmHg
[7]
  IC50: 0.22 nM
[8]
  Activity: Active
[9]
  Activity: 158.12 ng/mL
[10]
  Activity: 132.21 ng/mL
[11]
  Activity: 252.13 pg/mL
[12]
  Activity: 238.08 pg/mL
[13]
  Activity: 2.32 pg/mL
[14]
  Activity: 2.1 pg/mL
[15]
  Activity: 31.12 U/mg
[16]
  Activity: 40.21 U/mg
[17]
  Activity: 0.81 U/mg
[18]
  Activity: 1.05 U/mg
[19]
  Activity: 17.27 U/mg
[20]
  Activity: 22.72 U/mg
[21]
  Activity: 88.12 µmol
[22]
  Activity: 73.12 µmol
[23]
  fold change (FC): 2.91
[24]
  fold change (FC): 1.38
[25]
  fold change (FC): 1.04
[26]
  fold change (FC): 1.07
[27]
  fold change (FC): 0.37
[28]
  fold change (FC): 0.18
[29]
  Activity: Active
[30]
  Activity: Active
[31]
  Activity: Active
[32]
  Activity: Active

## COc1ccccc1Oc1c(NS(C)(=O)=O)nc(-c2ncccn2)nc1OCCC(C)C
[1]
  Activity: 0.23
[2]
  Activity: 0.26
[3]
  Activity: 9.02 mmHg
[4]
  Activity: 11.18 mmHg
[5]
  Activity: 21.11 mmHg
[6]
  Activity: 26.82 mmHg
[7]
  IC50: 0.18 nM
[33]
  Activity: Active
[9]
  Activity: 139 ng/mL
[10]
  Activity: 121 ng/mL
[11]
  Activity: 241.2 pg/mL
[12]
  Activity: 224 pg/mL
[13]
  Activity: 1.94 pg/mL
[14]
  Activity: 1.84 pg/mL
[15]
  Activity: 38.21 U/mg
[16]
  Activity: 46.01 U/mg
[17]
  Activity: 1.09 U/mg
[18]
  Activity: 1.21 U/mg
[19]
  Activity: 21.92 U/mg
[20]
  Activity: 28.09 U/mg
[21]
  Activity: 78.12 µmol
[22]
  Activity: 69.82 µmol
[23]
  fold change (FC): 1.81
[24]
  fold change (FC): 0.44
[25]
  fold change (FC): 0.34
[26]
  fold change (FC): 0.81
[27]
  fold change (FC): 0.63
[28]
  fold change (FC): 0.49
[29]
  Activity: Active
[30]
  Activity: Active
[31]
  Activity: Active
[32]
  Activity: Active

## CC/C=C/CCOc1nc(-c2ncccn2)nc(NS(C)(=O)=O)c1Oc1ccccc1OC
[1]
  Activity: 0.25
[2]
  Activity: 0.29
[3]
  Activity: 13.93 mmHg
[4]
  Activity: 17.16 mmHg
[5]
  Activity: 27.12 mmHg
[6]
  Activity: 33.18 mmHg
[7]
  IC50: 0.26 nM
[34]
  Activity: Active
[9]
  Activity: 163.12 ng/mL
[10]
  Activity: 146 ng/mL
[11]
  Activity: 261.12 pg/mL
[12]
  Activity: 245 pg/mL
[13]
  Activity: 2.67 pg/mL
[14]
  Activity: 2.36 pg/mL
[15]
  Activity: 25.43 U/mg
[16]
  Activity: 32.14 U/mg
[17]
  Activity: 0.68 U/mg
[18]
  Activity: 0.95 U/mg
[19]
  Activity: 14.02 U/mg
[20]
  Activity: 19.81 U/mg
[21]
  Activity: 102.23 µmol
[22]
  Activity: 89 µmol
[23]
  fold change (FC): 2.43
[24]
  fold change (FC): 0.62
[25]
  fold change (FC): 3.24
[26]
  fold change (FC): 1.19
[27]
  fold change (FC): 0.15
[28]
  fold change (FC): 0.38
[29]
  Activity: Active
[30]
  Activity: Active
[31]
  Activity: Active
[32]
  Activity: Active
